Experimental data: patent publication US12098217B2, “Fusion peptides as antimicrobial agents” (CENTRE NATIONAL DE LA RECHERCHE SCIENTIFIQUE, priority 2019, dated 2024)
pKd: −log10 of the molar value. Like-named read-outs stand apart in the source and are kept apart here. Square brackets hold non-standard residues; d marks the D form. Peptide text beside a SMILES is read from it. Cha = N[C@@H](CC1CCCCC1)C(=O)O

Assays:
[1] = system: E. coli infected kenny^drawing 2831 flies; assay: In vivo survival assay, D. melanogaster infection model; parameters: species or system Drosophila melanogaster; conditions: 18.4 nl of 1 mM peptide 1 and 24 h after infection; for fold increased survival of infected flies 96 h after injection: E. coli infected kenny flies, versus PBS
Procedure: FIG. 2 concerns the in vivo survival assay using Drosophila melanogaster infection model. Seven-day-old female kenny^C02831 flies were infected by septic injury with a thin tungsten needle previously dipped in an E. coli suspension diluted in PBS and kept at 29° C. 1 and 24 hours after infection, 18.4 nl of peptides (1 mM) diluted in PBS or PBS alone were injected into the flies body cavity. (A) Survival curves. (B) Survival rate after 96 hours. (C) Lethal time 50% (LT50). Data represent means±standard errors of at least 3 independent experiments, each containing three groups of 20 flies. One-Way ANOVA test: *P<0.05, **P<0.01, ***P<0.001. ns: non-significant (P28: Onc112; P30: Onc112-P7; P120: Onc112-P7Scr).
50 ml of E. coli ATCC23754 were grown at 29° C. in LB media up to exponential phase (OD600=0.6-0.8) and centrifuged at 5.000 g for 5 min. The pellet was then diluted in 1 ml of PBS. Immune-deficient kenny^C02831 (Bou Aoun, R., Hetru, C., Troxler, L., Doucet, D., Ferrandon, D., and Matt, N. (2011). Analysis of thioester-containing proteins during the innate immune response of Drosophila melanogaster. J Innate Immun 3, 52-64) flies were raised at 25° C. with 60% humidity on standard cornmeal-agar medium. Seven-day-old female flies were infected by septic injury with a thin tungsten needle previously dipped in an E. coli suspension diluted in PBS and kept at 29° C. 1 and 24 hours after infection, 18.4 nl of peptides (1 mM) diluted in PBS or PBS alone were injected into the fly body cavity (Nanoject II apparatus; Drummond Scientific). Because log-rank analysis can only compare two survival curves at a time in the same experiment, we decided to compute the median lethal time 50 (LT50) and the survival rate at 96 hours to perform One-way ANOVA statistical analysis.

Human PCNA = Human PCNA (Homo sapiens, UniProt P12004); assay: ITC, peptide interaction with human PCNA; type: binding; conditions: ITC 30° C.
Procedure: The inventors have compared the affinities of the prototypical P7 SC-binding peptide for the bacterial SC and for the eukaryotic functional homolog “Proliferating Cell Nuclear Antigen” PCNA. The same analysis was performed with the DPD1 peptide that contains a well-described specific PCNA Interacting Peptide (PIP) sequence ([…]).

[2] = molecular target: T1, E. coli SC (^EcSC, beta ring, DnaN) (Escherichia coli, UniProt P0A988); assay: ITC, peptide interaction with E. coli sliding clamp; type: binding
T1 construct: inferred from the pET15b vector and the Ni-NTA/imidazole purification; made in house; host or cells: E. coli BL21 (DE3) pLys

E. coli = conditions: cited from earlier work
[3] = system: E. coli ATCC 25922 (DSM 1103) strain; type: cell-based; conditions: ATCC 25922, 36 h
Procedure: E. coli strains were cultivated on either agar or liquid 1× Mueller Hinton broth unless specified. MIC assays were performed in duplicate in 96-well microtiter plates on the basis of the protocol recommended by the Clinical and Laboratory Standards Institute. Briefly, a mix of 5-6 fresh (less than 36 hours) colonies grown on MH agar plates were inoculated in 3 ml of MH broth and incubated for about 16 h at 37° C. under agitation. 30 μl of this saturated culture were inoculated in 3 ml of fresh medium and allowed to grow until OD600 nm of about 0.6-0.8. Dilution to an OD600 nm of 0.002 was made in MH broth. Within a time laps not exceeding 30 min, 50 μl of this cell suspension was added to 50 μl of MH broth (containing or not the peptide/antibiotic diluted in MH broth) in wells of a 96-well round bottom microwell plate (Greiner; final cell density about 2 to 5×10^5 cfu/ml). Plates were incubated at 37° C. for 18-24 h and final turbidity of each well was measured at 620 nm using a Multiskan FC microplate reader (Thermo Scientific). MIC was defined as the minimal antibiotic concentration that result in no increase of turbidity at that time. Each MIC determination was performed in duplicate and at least in two independent experiments. Plating of 75 μl of the content of the wells of interest on LB Agar plates was used to determine the MBC that is defined by a decrease of at least 99.9% of cell viability as compared to the number of viable cells in the inoculum (about 2 to 5×10^4 cfu).
The antimicrobial activities of these peptides have been tested against the E. coli ATCC 25922 (DSM 1103) strain in 1× Mueller-Hinton broth as mentioned above.
The antimicrobial activities of these peptides and controls have been tested against the E. coli ATCC 25922 (DSM 1103) strain in 1× Mueller-Hinton broth.

[4] = ITC 25° C., E. coli SC (beta ring)
[5] = ITC 30° C. (303.15 K), Table 2A, ^EcSC, Ni = no specific interaction
[6] = ITC 30° C., Table 2A, ^EcSC, Ni = no specific interaction

T1 sequence (P0A988 whole entry): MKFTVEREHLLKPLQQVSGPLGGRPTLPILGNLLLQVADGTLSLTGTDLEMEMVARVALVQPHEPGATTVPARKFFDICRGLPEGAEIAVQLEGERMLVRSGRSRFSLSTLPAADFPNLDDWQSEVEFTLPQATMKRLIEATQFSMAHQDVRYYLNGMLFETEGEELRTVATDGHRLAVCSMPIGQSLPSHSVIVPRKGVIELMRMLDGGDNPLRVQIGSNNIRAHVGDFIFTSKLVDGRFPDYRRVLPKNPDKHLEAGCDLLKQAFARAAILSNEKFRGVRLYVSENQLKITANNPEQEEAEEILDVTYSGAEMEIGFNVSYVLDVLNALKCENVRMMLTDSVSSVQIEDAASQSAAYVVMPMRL
Sequence of Human PCNA (P12004 whole entry): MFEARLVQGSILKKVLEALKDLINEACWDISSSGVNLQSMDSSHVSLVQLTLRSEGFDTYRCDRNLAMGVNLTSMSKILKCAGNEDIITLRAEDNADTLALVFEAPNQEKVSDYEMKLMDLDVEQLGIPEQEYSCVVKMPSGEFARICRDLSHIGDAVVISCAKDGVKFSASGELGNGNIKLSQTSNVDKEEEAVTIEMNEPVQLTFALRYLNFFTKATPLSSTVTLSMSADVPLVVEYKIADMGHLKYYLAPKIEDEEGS

| Structure (SMILES) | effect on survival of E. coli infected flies, in words [1] | interaction with Human PCNA, in words (Human PCNA) | ΔG [2, 4] [kcal/mol] | ΔH [2, 4] [kcal/mol] | ΔH [2, 5] [kcal/mol] | ΔH ([2]; ITC 30° C., E.coli SC, specificity comparison with PCNA) [kcal/mol] | ΔG [2, 6] [kcal/mol] | −TΔS [2, 6] [kcal/mol] | pKd ([2]; dissociation constant (Kd) for ^EcSC, at 30° C.) | fold increase of affinity for ^EcSC compared to natural SC binding peptide (RQLVLGL) ([2]; versus RQLVLGL from E. coli DNA polymerase IV) [fold] | fold increased survival of infected flies 96 h after injection [1] [fold] | MIC of previous reports (E. coli) [µM] | MIC of previous reports (E. coli; other E. coli strains and/or culture media) [µg/mL] | MIC [3] [µM] | interaction with ^EcSC, in words ([2]; ITC 30° C.) | ΔH (kcal/mole) [2, 5] | Kd (nM) [2, 6] | ΔG (kcal/mole) [2, 6] | −TΔS (kcal/mole) [2, 6] |
| --- | --- | --- | --- | --- | --- | --- | --- | --- | --- | --- | --- | --- | --- | --- | --- | --- | --- | --- | --- |
| CC(=O)N[C@@H](CCC(N)=O)C(=O)N[C@@H](CC1CCCCC1)C(=O)N[C@@H](CC(=O)O)C(=O)N[C@@H](CC(C)C)C(=O)N[C@@H](Cc1ccccc1)C(=O)O [Peptide P7, Ac-QChaDLF-OH, reference compound] (Ac-Q[Cha]DLF-OH) | has no effect on fly survival | no interaction could be detected | -9.2 | -15.4 | -13.7 | -12.05 | -9.00 | 4.71 | 6.40 | 50 |  |  |  |  |  |  |  |  |  |
| CC[C@H](C)[C@H](NC(=O)[C@@H](CCCNC(=N)N)NC(=O)[C@H](CCCNC(=N)N)NC(=O)[C@@H]1CCCN1C(=O)[C@@H]1CCCN1C(=O)[C@H](CCCNC(=N)N)NC(=O)[C@@H]1CCCN1C(=O)[C@H](CCCNC(=N)N)NC(=O)[C@@H]1CCCN1C(=O)[C@H](CC(C)C)NC(=O)[C@H](Cc1ccc(O)cc1)NC(=O)[C@@H]1CCCN1C(=O)[C@@H]1CCCN1C(=O)[C@H](CCCCN)NC(=O)[C@H](CC(=O)O)NC(=O)[C@@H](N)C(C)C)C(=O)N[C@@H](Cc1ccc(O)cc1)C(=O)N[C@@H](CC(N)=O)C(=O)N[C@H](CCCNC(=N)N)C(N)=O [Peptide P28, reference compound] (H-VDKPPYLPRPRPPR[dR]IYN[dR]-NH2; N-terminus assumed) |  |  |  |  |  |  |  |  |  |  | 2.5 | 0.82 | 2 | 2 to 8 | do not interact | Ni | Ni | Ni | Ni |
| CC[C@H](C)[C@H](NC(=O)[C@@H](CCCNC(=N)N)NC(=O)[C@H](CCCNC(=N)N)NC(=O)[C@@H]1CCCN1C(=O)[C@@H]1CCCN1C(=O)[C@H](CCCNC(=N)N)NC(=O)[C@@H]1CCCN1C(=O)[C@H](CCCNC(=N)N)NC(=O)[C@@H]1CCCN1C(=O)[C@H](CC(C)C)NC(=O)[C@H](Cc1ccc(O)cc1)NC(=O)[C@@H]1CCCN1C(=O)[C@@H]1CCCN1C(=O)[C@H](CCCCN)NC(=O)[C@H](CC(=O)O)NC(=O)[C@@H](N)C(C)C)C(=O)N[C@@H](Cc1ccc(O)cc1)C(=O)N[C@@H](CC(N)=O)C(=O)N[C@H](CCCNC(=N)N)C(=O)N[C@@H](CC(N)=O)C(=O)NCC(=O)N1CCC[C@H]1C(=O)N[C@@H](CCCNC(=N)N)C(=O)N[C@@H](CCC(N)=O)C(=O)N[C@@H](CC1CCCCC1)C(=O)N[C@@H](CC(=O)O)C(=O)N[C@@H](CC(C)C)C(=O)N[C@@H](Cc1ccccc1)C(=O)O [Peptide P30] (H-VDKPPYLPRPRPPR[dR]IYN[dR]NGPRQ[Cha]DLF-OH) | two times higher protective effect than its parental peptide P28 |  | -9.2 | -14.6 | -13.5 |  | -9.28 | 4.2 |  |  | 4.5 |  |  | 16 to 32 | as efficiently as P7 alone |  |  |  |  |
| CC[C@H](C)[C@H](NC(=O)[C@@H](CCCNC(=N)N)NC(=O)[C@H](CCCNC(=N)N)NC(=O)[C@@H]1CCCN1C(=O)[C@@H]1CCCN1C(=O)[C@H](CCCNC(=N)N)NC(=O)[C@@H]1CCCN1C(=O)[C@H](CCCNC(=N)N)NC(=O)[C@@H]1CCCN1C(=O)[C@H](CC(C)C)NC(=O)[C@H](Cc1ccc(O)cc1)NC(=O)[C@@H]1CCCN1C(=O)[C@@H]1CCCN1C(=O)[C@H](CCCCN)NC(=O)[C@H](CC(=O)O)NC(=O)[C@@H](N)C(C)C)C(=O)N[C@@H](Cc1ccc(O)cc1)C(=O)N[C@@H](CC(N)=O)C(=O)N[C@H](CCCNC(=N)N)C(=O)N[C@@H](CC(N)=O)C(=O)NCC(=O)N1CCC[C@H]1C(=O)N[C@@H](CCCNC(=N)N)C(=O)N[C@@H](CC1CCCCC1)C(=O)N[C@@H](Cc1ccccc1)C(=O)N[C@@H](CCC(N)=O)C(=O)N[C@@H](CC(C)C)C(=O)N[C@@H](CC(=O)O)C(=O)O [Peptide P120] (H-VDKPPYLPRPRPPR[dR]IYN[dR]NGPR[Cha]FQLD-OH) | does not statistically differ from that measured with P28 |  |  |  |  |  |  |  |  |  |  |  |  |  | fail to interact | Ni | Ni | Ni | Ni |
| CC[C@H](C)[C@H](NC(=O)[C@@H]1CCCN1C(=O)[C@H](CCCNC(=N)N)NC(=O)[C@@H]1CCCN1C(=O)[C@@H]1CCCN1C(=O)[C@@H](NC(=O)[C@@H]1CCCN1C(=O)[C@H](CCCNC(=N)N)NC(=O)[C@@H]1CCCN1C(=O)[C@H](CC(C)C)NC(=O)[C@H](Cc1ccc(O)cc1)NC(=O)[C@H](CO)NC(=O)CNC(=O)[C@H](CCCCN)NC(=O)[C@H](CC(=O)O)NC(=O)[C@@H](NC(=O)[C@H](CCCCN)NC(=O)c1ccc2c(c1)C(=O)OC21c2ccc(O)cc2Oc2cc(O)ccc21)C(C)C)[C@@H](C)O)C(=O)N[C@@H](Cc1ccc(O)cc1)C(=O)N[C@@H](CC(N)=O)C(=O)N[C@@H](CCCNC(=N)N)C(=O)N[C@@H](CC(N)=O)C(=O)NCC(=O)N1CCC[C@H]1C(=O)N[C@@H](CCCNC(=N)N)C(=O)N[C@@H](CCC(N)=O)C(=O)N[C@@H](CC1CCCCC1)C(=O)N[C@@H](CC(=O)O)C(=O)N[C@@H](CC(C)C)C(=O)N[C@@H](Cc1ccccc1)C(=O)O [Peptide P150] |  |  |  |  | -17.2 |  | -8.99 | 8.21 |  |  |  |  |  |  | similarly interacts |  |  |  |  |
